Experiments:
[1] = tested on: KM12; test: cells; type: cell-based; details: for Growth percent KM12: Colon cancer, 48 hours, SRB
[2] = tested on: OVCAR-4; type: cell-based; details: for Growth percent OVCAR-4: Ovarian cancer, 10^−5 molar, 48 hours, SRB
[3] = tested on: NCI-H226; type: cell-based; details: for Growth percent NCI-H226: Non-small cell lung cancer, 48 hours, SRB
[4] = tested on: HCT-116; type: cell-based; details: for Growth percent HCT-116: Colon cancer, 48 hours, SRB
[5] = tested on: CAKI-1; type: cell-based; details: for Growth percent CAKI-1: Renal cancer, 10^−5 molar, 48 hours, SRB
[6] = tested on: U251; type: cell-based; details: for Growth percent U251: CNS cancer, 48 hours, SRB
[7] = tested on: SF-268; type: cell-based; details: for Growth percent SF-268: CNS cancer, 48 hours, SRB
[8] = tested on: SK-MEL-5; type: cell-based; details: for Growth percent SK-MEL-5: Melanoma, 48 hours, SRB
[9] = tested on: SK-MEL-2; type: cell-based; details: for Growth percent SK-MEL-2: Melanoma, 48 hours, SRB
[10] = tested on: SF-539; type: cell-based; details: for Growth percent SF-539: CNS cancer, 48 hours, SRB
[11] = tested on: HOP-92; type: cell-based; details: 10^−5 molar; for Growth percent HOP-92: Non-small cell lung cancer, 48 hours, SRB
[12] = tested on: HOP-62; type: cell-based; details: for Growth percent HOP-62: Non-small cell lung cancer, 48 hours, SRB
[13] = tested on: OVCAR-3; type: cell-based; details: for Growth percent OVCAR-3: Ovarian cancer, 48 hours, SRB
[14] = tested on: UACC-257; type: cell-based; details: for Growth percent UACC-257: Melanoma, 48 hours, SRB
[15] = tested on: ACHN; type: cell-based; details: for Growth percent ACHN: Renal cancer, 48 hours, SRB
[16] = tested on: NCI/ADR-RES; type: cell-based; details: for Growth percent NCI/ADR-RES: Ovarian cancer, 48 hours, SRB
[17] = tested on: MDA-MB-231/ATCC; type: cell-based; details: for Growth percent MDA-MB-231/ATCC: Breast cancer, 48 hours, SRB
[18] = tested on: IGROV1; type: cell-based; details: for Growth percent IGROV1: Ovarian cancer, 48 hours, SRB
[19] = tested on: HCC-2998; type: cell-based; details: for Growth percent HCC-2998: Colon cancer, 48 hours, SRB
[20] = tested on: SK-OV-3; type: cell-based; details: for Growth percent SK-OV-3: Ovarian cancer, 48 hours, SRB
[21] = Homo sapiens, NCI-H226, five dose
[22] = Homo sapiens, HCT-116, five dose
[23] = Homo sapiens, U-251, U251, five dose
[24] = Homo sapiens, SK-Mel-2, five dose
[25] = Homo sapiens, SF-539, five dose
[26] = Homo sapiens, HOP-62, five dose
[27] = Homo sapiens, HCC-2998, five dose

## CCNc1nc2ccccc2c2c(=O)c3cc(Cl)ccc3sc12 [Compound N2, 10-Chloro-6-ethylamino-12H-thiochromeno[2,3-c]quinolin-12-one]
[1]; 10^−5 molar
  Growth percent KM12: 85.79%
[1]; Homo sapiens, KM12, five dose
  GI50: > 100 µM
  LC50: > 100 µM
[1]; KM12, five dose
  TGI: >100 µM
[2]; Homo sapiens, OVCAR-4, five dose
  GI50: > 100 µM
[2]; Homo sapiens, OVCAR-4, five dose, read-out: LC50 (the source's name)
  CC50: > 100 µM
[2]; OVCAR-4, five dose
  TGI: >100 µM
[2]
  Growth percent OVCAR-4: 23.19%
[3]; [21]
  GI50: 33.2 µM
  LC50 (concentration giving 50% net cell kill): > 100 µM
[3]; NCI-H226, five dose
  TGI: >100 µM
[3]; 10^−5 molar
  Growth percent NCI-H226: 41.31%
[4]; 10^−5 molar
  Growth percent HCT-116: 48.13%
[4]; HCT-116, five dose
  TGI: >100 µM
[4]; [22]
  GI50: 6.31 µM
  LC50 (concentration killing 50% of cells): > 100 µM
[5]; CAKI-1, five dose
  TGI: >100 µM
[5]; Homo sapiens, CAKI-1, five dose
  GI50: 26.4 µM
[5]; Homo sapiens, CAKI-1, five dose, read-out: LC50 (the source's name)
  CC50: > 100 µM
[5]
  Growth percent CAKI-1: 72.44%
[6]; 10^−5 molar
  Growth percent U251: 76.58%
[6]; [23]
  GI50: 16.9 µM
  LC50: > 100 µM
[6]; U251, five dose
  TGI: 67.90 µM
[7]; 10^−5 molar
  Growth percent SF-268: 78.23%
[7]; Homo sapiens, SF-268, five dose
  GI50: 22.1 µM
[7]; Homo sapiens, SF-268, five dose, read-out: LC50 (the source's name)
  CC50: > 100 µM
[7]; SF-268, five dose
  TGI: >100 µM
[8]; Homo sapiens, SK-MEL-5, five dose
  LC50: > 100 µM
[8]; 10^−5 molar
  Growth percent SK-MEL-5: 73.99%
[8]; SK-MEL-5, five dose
  TGI: >100 µM
[9]; [24]
  GI50: 16.3 µM
  LC50: > 100 µM
[9]; 10^−5 molar
  Growth percent SK-MEL-2: 76.15%
[9]; SK-Mel-2, five dose
  TGI: 43.2 µM
[10]; 10^−5 molar
  Growth percent SF-539: 60.35%
[10]; [25]
  GI50: 10.1 µM
  LC50: > 100 µM
[10]; SF-539, five dose
  TGI: 58.50 µM
[11]
  Growth percent HOP-92: −0.07%
[12]; HOP-62, five dose
  TGI: 35.20 µM
[12]; [26]
  GI50: 13.3 µM
  LC50 (lethal concentration 50): 93.1 µM
[12]; 10^−5 molar
  Growth percent HOP-62: 57.49%
[13]; Homo sapiens, OVCAR-3, five dose
  GI50: 52.4 µM
[13]; Homo sapiens, OVCAR-3, five dose, read-out: LC50 (the source's name)
  CC50: > 100 µM
[13]; OVCAR-3, five dose
  TGI: >100 µM
[13]; 10^−5 molar
  Growth percent OVCAR-3: 76.51%
[14]; Homo sapiens, UACC-257, five dose
  GI50: > 100 µM
[14]; Homo sapiens, UACC-257, five dose, read-out: LC50 (the source's name)
  CC50: > 100 µM
[14]; 10^−5 molar
  Growth percent UACC-257: 75.21%
[14]; UACC-257, five dose
  TGI: >100 µM
[15]; ACHN, five dose
  TGI: >100 µM
[15]; Homo sapiens, ACHN, five dose
  GI50: 8.66 µM
[15]; Homo sapiens, ACHN, five dose, read-out: LC50 (the source's name)
  CC50: > 100 µM
[15]; 10^−5 molar
  Growth percent ACHN: 43.77%
[16]; Homo sapiens, NCI/ADR-RES, five dose
  GI50: 33.5 µM
[16]; Homo sapiens, NCI/ADR-RES, five dose, read-out: LC50 (the source's name)
  CC50: > 100 µM
[16]; NCI/ADR-RES, five dose
  TGI: >100 µM
[16]; 10^−5 molar
  Growth percent NCI/ADR-RES: 88.61%
[17]; 10^−5 molar
  Growth percent MDA-MB-231/ATCC: 48.66%
[17]; Homo sapiens, MDA-MB-231/ATCC, five dose
  GI50: 10.1 µM
[17]; Homo sapiens, MDA-MB-231/ATCC, five dose, read-out: LC50 (the source's name)
  CC50: > 100 µM
[17]; MDA-MB-231/ATCC, five dose
  TGI: 65.5 µM
[18]; Homo sapiens, IGROV-1, IGROV1, five dose
  GI50: 11.9 µM
[18]; Homo sapiens, IGROV-1, IGROV1, five dose, read-out: LC50 (the source's name)
  CC50: > 100 µM
[18]; IGROV1, five dose
  TGI: 54.40 µM
[18]; 10^−5 molar
  Growth percent IGROV1: 59.26%
[19]; 10^−5 molar
  Growth percent HCC-2998: 98.02%
[19]; HCC-2998, five dose
  TGI: >100 µM
[19]; [27]
  GI50: > 100 µM
  LC50: > 100 µM
[20]; Homo sapiens, SK-OV-3, five dose
  GI50: 11.1 µM
[20]; Homo sapiens, SK-OV-3, five dose, read-out: LC50 (the source's name)
  CC50: > 100 µM
[20]; 10^−5 molar
  Growth percent SK-OV-3: 28.90%
[20]; SK-OV-3, five dose
  TGI: 35.20 µM

## O=c1c2cc(Cl)ccc2sc2c(NCCO)nc3ccccc3c12 [Compound N9, 10-Chloro-6-(2-ethanolamino)-12H-thiochromeno[2,3-c]quinolin-12-one]
[1]; 10^−5 molar
  Growth percent KM12: 91.93%
[2]
  Growth percent OVCAR-4: 102.67%
[3]; 10^−5 molar
  Growth percent NCI-H226: 83.55%
[4]; 10^−5 molar
  Growth percent HCT-116: 93.62%
[5]
  Growth percent CAKI-1: 89.29%
[6]; 10^−5 molar
  Growth percent U251: 84.10%
[7]; 10^−5 molar
  Growth percent SF-268: 95.06%
[8]; 10^−5 molar
  Growth percent SK-MEL-5: 97.36%
[9]; 10^−5 molar
  Growth percent SK-MEL-2: 86.80%
[10]; 10^−5 molar
  Growth percent SF-539: 90.56%
[11]
  Growth percent HOP-92: 63.17%
[12]; 10^−5 molar
  Growth percent HOP-62: 81.90%
[13]; 10^−5 molar
  Growth percent OVCAR-3: 103.35%
[14]; 10^−5 molar
  Growth percent UACC-257: 89.33%
[15]; 10^−5 molar
  Growth percent ACHN: 82.25%
[16]; 10^−5 molar
  Growth percent NCI/ADR-RES: 91.54%
[17]; 10^−5 molar
  Growth percent MDA-MB-231/ATCC: 66.62%
[18]; 10^−5 molar
  Growth percent IGROV1: 88.51%
[19]; 10^−5 molar
  Growth percent HCC-2998: 101.55%
[20]; 10^−5 molar
  Growth percent SK-OV-3: 104.57%

## CC(C)CC(C)Nc1nc2ccccc2c2c(=O)c3cc(Cl)ccc3sc12 (stereo not shown) [Compound N13, 10-Chloro-6-((4-methylpentan-2-yl)amino)-12H-thiochromeno[2,3-c]quinolin-12-one]
[1]; 10^−5 molar
  Growth percent KM12: 105.66%
[2]
  Growth percent OVCAR-4: 86.07%
[3]; 10^−5 molar
  Growth percent NCI-H226: 87.55%
[4]; 10^−5 molar
  Growth percent HCT-116: 90.30%
other
  melting point: 176 to 177 °C
[5]
  Growth percent CAKI-1: 86.38%
[6]; 10^−5 molar
  Growth percent U251: 105.12%
[7]; 10^−5 molar
  Growth percent SF-268: 105.52%
[8]; 10^−5 molar
  Growth percent SK-MEL-5: 90.71%
[12]; 10^−5 molar
  Growth percent HOP-62: 88.69%
[13]; 10^−5 molar
  Growth percent OVCAR-3: 115.22%
[14]; 10^−5 molar
  Growth percent UACC-257: 114.40%
[15]; 10^−5 molar
  Growth percent ACHN: 91.24%
[16]; 10^−5 molar
  Growth percent NCI/ADR-RES: 98.47%
[17]; 10^−5 molar
  Growth percent MDA-MB-231/ATCC: 84.22%
[18]; 10^−5 molar
  Growth percent IGROV1: 74.77%
[19]; 10^−5 molar
  Growth percent HCC-2998: 112.26%
[20]; 10^−5 molar
  Growth percent SK-OV-3: 86.70%

## O=c1c2cc(Cl)ccc2sc2c(NCCN3CCOCC3)nc3ccccc3c12 [Compound N16, 10-Chloro-6-((2-morpholinoethyl)amino)-12H-thiochromeno[2,3-c]quinolin-12-one]
[1]; KM12, 10^−5 molar
  Growth percent: 68.16%
[3]; NCI-H226, 10^−5 molar
  Growth percent: 94.09%
[4]; HCT-116, 10^−5 molar
  Growth percent: 81.64%
other
  melting point: 189 to 190 °C
[6]; U251, 10^−5 molar
  Growth percent: 76.34%
[7]; SF-268, 10^−5 molar
  Growth percent: 79.49%
[8]; SK-MEL-5, 10^−5 molar
  Growth percent: 91.61%
[9]; SK-Mel-2, 10^−5 molar
  Growth percent: 94.52%
[10]; SF-539, 10^−5 molar
  Growth percent: 76.72%
[11]; HOP-92
  Growth percent: 58.79%
[12]; HOP-62, 10^−5 molar
  Growth percent: 67.97%
[13]; OVCAR-3, 10^−5 molar
  Growth percent: 97.14%
[14]; UACC-257, 10^−5 molar
  Growth percent: 106.52%
[15]; ACHN, 10^−5 molar
  Growth percent: 91.61%
[16]; NCI/ADR-RES, 10^−5 molar
  Growth percent: 77.03%
[17]; MDA-MB-231/ATCC, 10^−5 molar
  Growth percent: 59.20%
[18]; IGROV1, 10^−5 molar
  Growth percent: 74.11%
[19]; HCC-2998, 10^−5 molar
  Growth percent: 90.51%
[20]; SK-OV-3, 10^−5 molar
  Growth percent: 85.34%
